Assay: xn = mol fraction of the nth substance listed
Conditions: 101 kPa, Liquid; for viscosity: Capillary tube (Ostwald / Ubbelohde) method; for mass density: Vibrating tube method

NCCO [2-aminoethan-1-ol] + O
Conditions | mass density, 293.15 K [kg/m3] | mass density, 303.15 K [kg/m3] | mass density, 313.15 K [kg/m3] | mass density, 323.15 K [kg/m3] | mass density, 333.15 K [kg/m3] | viscosity, 293.15 K [mPa·s] | viscosity, 303.15 K [mPa·s] | viscosity, 313.15 K [mPa·s] | viscosity, 323.15 K [mPa·s] | viscosity, 333.15 K [mPa·s]
x1 = 0.1 | 1010.9 | 1007 | 1002.5 | 997.4 | 991.7 | 2.669 | 1.953 | 1.495 | 1.147 | 0.903
x1 = 0.1999 | 1021.1 | 1016 | 1010.6 | 1004.4 | 998 | 5.763 | 3.976 | 2.388 | 1.819 | 1.429
x1 = 0.2998 | 1027.1 | 1021 | 1014.3 | 1007.5 | 1000.5 | 10.28 | 6.221 | 4.011 | 3 | 2.268
x1 = 0.4 | 1029.4 | 1022.6 | 1015.5 | 1008.3 | 1000.8 | 15.22 | 9.814 | 6.589 | 4.621 | 3.387
x1 = 0.4998 | 1029.3 | 1022 | 1014.6 | 1007 | 999.4 | 19.75 | 12.4 | 8.077 | 5.671 | 4.071
x1 = 0.5995 | 1028.1 | 1020.3 | 1012.7 | 1004.9 | 997 | 22.83 | 14.17 | 9.474 | 6.412 | 4.784
x1 = 0.6982 | 1026.3 | 1018 | 1010.4 | 1002.8 | 994.9 | 24.37 | 15.25 | 10.05 | 7.035 | 4.978
x1 = 0.7974 | 1023.8 | 1015.1 | 1007.1 | 999.4 | 991.5 | 25.19 | 15.62 | 10.09 | 7.169 | 5.014
x1 = 0.8995 | 1021.2 | 1013 | 1005.1 | 997.2 | 988.1 | 24.62 | 15.17 | 10.08 | 7.12 | 5.001
x1 = 1 | 1016.9 | 1009.5 | 1001.1 | 992.7 | 984.3 | 23.79 | 14.83 | 9.89 | 6.872 | 4.99

Source: the NIST ThermoML archive (doi:10.1016/j.jct.2019.06.032)
